From article PMC6150007 (Molecules : A Journal of Synthetic Chemistry and Natural …, 2017)
Values after ≈ are worked out from the molar mass of the structure shown. Where two headings read alike, the source gives them in different places.

Assays:
[1] = set-up: method as in PMID 19930170; conditions: mice; oral administration of L-dopa and carbidopa; cited from earlier work
[2] = tested on: striatal monoamines and metabolites; conditions: for concentration reached in the brain: mouse, in vivo
Protocol: The delivery of dopamine by the prodrug was thus indirectly assessed by measuring dopamine levels in the striatal tissue of mice following treatment with the prodrug. For this purpose, the measurement of dopamine metabolites and other monoamine neurotransmitters and their metabolites was also included. […] Another four groups (n = 3 mice/group) were treated in the same manner by intraperitoneal injection. The animals were sacrificed 60 min after treatment, the striata were dissected and the concentrations of dopamine, 3,4-dihydroxyphenylacetic acid (DOPAC), homovanillic acid (HVA), noradrenaline, serotonin and 5-hydroxyindoleacetic acid (HIAA) were measured [40].
Male C57BL/6 mice were weighed and allocated into 4 groups of 3 mice each. […] A second set of 4 groups (n = 3) were treated in the same manner by intraperitoneal injection. All solutions were prepared in sterile saline and administered at volumes of 0.1 mL for oral gavage and 0.2 mL for intraperitoneal injection. The animals were euthanised 60 min after treatment and the striata were dissected and stored at −80 °C until the day of the experiment. The concentrations of dopamine, 3,4-dihydroxyphenylacetic acid (DOPAC), homovanillic acid (HVA), noradrenaline, serotonin and 5-hydroxyindoleacetic acid (5-HIAA) were determined according to the published protocol, and are reported as mean ± standard deviation of each group [40]. Prism version 5 (GraphPad Software, San Diego, CA, USA) was used for the statistical analyses and for the preparation of graphical presentations. Data were analysed by one-way analysis of variance (ANOVA) across all groups, and were subsequently subjected to the Dunnett’s post-hoc test to determine statistical differences between the means. A p-value of <0.05 indicates a statistically significant difference.

[3] = PAMPA, 5 h, 200 µM
Protocol: (§5) The HPLC system consisted of an Agilent 1200 series HPLC system with a binary gradient pump, autosampler and vacuum degasser coupled to an Agilent 1200 series variable-wavelength detector (Santa Clara, CA, USA). The analyses were carried out with Venusil XBP C18 column (4.60 mm × 150 mm, 5 μm, Bonna-Agela Technologies, Wilmington, DE, USA). […] The effluent was monitored at 276 nm. […] The effluent was monitored at 280 nm. A volume of 20 µL of the samples was injected into the HPLC system.
(§6) The precoated parallel artificial membrane permeability assay (PAMPA) plate system was obtained from BD Biosciences. Prior to use, the pre-coated PAMPA plates were warmed to room temperature for at least 30 min. Once warmed to room temperature, the plate system was used within 24 h. A volume of 300 µL of the test compound solution in potassium phosphate buffer (100 mM, pH 6.4, 7.4 and 7.8) or in sodium acetate buffer (50 mM, pH 3.7, 4.7 and 5.7) was added per well in the receiver/donor plate (bottom). The final concentration of the test compounds was 200 µM in each well. A volume of 200 µL of potassium phosphate buffer (100 mM, pH 6.4, 7.4 and 7.8) or sodium acetate buffer (50 mM, pH 3.7, 4.7 and 5.7) was then added per well to the filter/acceptor plate (top). The filter plate was placed on the receiver plate by slowly lowering the precoated PAMPA plate until it was seated on the receiver plate. The assembly was incubated at room temperature for 5 h. The precoated PAMPA plate and the receiver plate were separated. The compound concentrations were determined using the HPLC system described above. The permeability values are given as mean ± standard deviation of triplicate determinations [38].

[4] = set-up: method as in PMID 20646792; conditions: after oral administration of L-dopa prodrugs to rats; cited from earlier work
MTT cell viability assay = type: cell-based, human; conditions: human, HeLa cells, read-out: percentage of viable cells remaining
Text: (§1) For this purpose, the MTT cell viability assay was used. The MTT assay is a standard cell viability assay, measuring mitochondrial activity in live (metabolically viable) cells. Metabolically active mitochondria in viable cells have the ability to reduce MTT to coloured formazan crystals that can be quantitated spectrophotometrically. The presence of a toxic agent will reduce cell viability and thus limit the reduction of MTT to the formazan product. For this study, HeLa cells were selected. This selection was based on the high growth rate of HeLa cells and on the observation that these cells are frequently used to measure cell viability in the presence of toxic agents.
(§2) HeLa cells were maintained in 250 cm^2 flasks in 30 mL Dulbecco’s Modified Eagle Medium (DMEM) containing 10% fetal bovine serum, 1% penicillin (10,000 units/mL)/streptomycin (10 mg/mL) and 0.1% fungizone (250 µg/mL). The cells were incubated at 37 °C in an atmosphere of 10% CO2. Once confluent, the cells were seeded at 500,000 cells/well in 24-well plates and incubated for 24 h. A volume of 3 mL trypsin/EDTA (0.25%/0.02%) was used to facilitate cell detachment and the counting of cells was done with a haemocytometer. The wells were subsequently rinsed with 0.5 mL DMEM containing no fetal bovine serum. A volume of 0.99 mL DMEM (containing no fetal bovine serum) was subsequently added to each well followed by 10 µL of the test drug. Stock solutions of the test drugs were prepared in deionised water and sterilised via a 0.22 µm syringe filter. In each 24-well plate, wells were reserved as positive controls (100% cell death via lyses with 0.3% formic acid) and negative controls (0% cell death as a result of no treatment). The well-plates were incubated for a further 24 h after which the culture medium was aspirated from the cells. The wells were washed twice with 0.5 mL/well phosphate-buffered saline (PBS) and 200 µL of 0.05% MTT reagent (3-(4,5-dimethylthiazol-2-yl)-2,5-diphenyltetrazolium bromide) in PBS was added to each well. The well-plates were incubated at 37 °C for 2 h in the dark, the MTT reagent was aspirated from the wells and 250 µL isopropanol was added to each well. The well-plates were then incubated at room temperature for 5 min to dissolve the purple formazan crystals, whereafter 100 µL of the isopropanol phase was transferred to a 96-well plate. The absorbance of each isopropanol phase was measured spectrophotometrically at 560 nm.

HeLa cells = assay: MTT cell viability assay; type: cell-based, human; conditions: 100 µM, 24 h
Text: as §1, §2

[5] = cited from earlier work
in vitro = conditions: PAMPA
Protocol: as §5, §6

[6] = Chemical stability in aqueous buffer (HPLC); type: physicochemical; conditions: 50 µM, room temperature
Protocol: (§3) The effluent was monitored at 276 nm. […] The effluent was monitored at 280 nm.
The stock solution was immediately diluted to 50 µM and the resulting solution was analysed by the HPLC method described above. The first injection served as reference point, after which the same solution was again injected at 1 h, 3 h, 6 h, 9 h and 11 h. During this time, the test solution remained at room temperature in the autosampler tray. The stabilities of the prodrug in the selected buffer phases are reported as the percentage mean ± standard deviation of the first injection, which served as reference point.

[7] = Plasma stability, rat plasma; type: in vitro ADME; conditions: 37 °C, approx. 200 µM spiked
Protocol: as §3
(§4) Plasma was collected in 0.5 mL MiniCollect® heparin plasma tubes (Greiner Bio-One, Kremsmünster, Austria) and centrifuged at 5500 rpm. Liver and brain tissue were collected, placed on ice and rinsed with 0.25 M sucrose dissolved in water. Sucrose solution was added to the tissue at a ratio 1:3 (w/v), the tissues were cut into small pieces using scissors and homogenised by 2 passes (60 s each) using a Potter–Elvehjem homogeniser (1200 rev/min, Potter–Elvehjem, Kennesaw, GA, USA). Care was taken to cool the homogeniser in ice during this procedure. […] The stock solution was immediately diluted to approximately 200 µM into plasma or tissue homogenate (preheated to 37 °C) and the resulting mixtures were analysed by the HPLC method described above. For this purpose, 100 µL of the spiked plasma or tissue homogenate was added to 300 µL acetonitrile (containing formic acid 1%) in a Phree tube. The tube was vortexed for 2 min and filtered under vacuum (9–10 mmHg). The collected solvent was evaporated under a stream of air, and the residue was redissolved in 100 µL methanol. A volume of 300 µL water was added and 20 µL of the resulting solution was analysed by the HPLC system. […] The concentration of lazabemide was also determined.

[8] = Ionisation constant (pKa) by potentiometric titration; type: physicochemical
Protocol: The prodrug was titrated in 0.1 mL increments and the pH was recorded after each addition. A total of 1 mL KOH was added to fully neutralise the primary amine group of the prodrug. The results were subsequently tabulated according to the method described in literature, and the pKa value was calculated.

[9] = Plasma stability, human plasma; type: in vitro ADME; conditions: 37 °C, approx. 200 µM spiked
Protocol: as §3, §4

[10] = Solubility in water and potassium phosphate buffer; type: physicochemical; conditions: thermodynamic from solid, 37 °C
Protocol: This yielded a theoretical concentration of 6.0 mg/mL. The tubes were agitated for 24 h in a water bath at 37 °C and were subsequently centrifuged at 16,000× g for 10 min. The samples were filtered through a 0.22 µm syringe filter and diluted 150-fold into water or potassium phosphate buffer (100 mM, pH 7.4). The absorbances of the resulting solutions were recorded at a wavelength of maximal absorbance of 276 nm.

[11] = Shake-flask logD determination (n-octanol/buffer); conditions: n-octanol/potassium phosphate buffer 100 mM
Protocol: (§7) n-Octanol (analytical reagent from Sigma-Aldrich) and the appropriate buffer were mutually saturated in a separatory funnel. Potassium phosphate buffer (100 mM) at pH 6.4, 7.4 and 7.8 served as the aqueous buffer phases. […] The vessels were shaken by hand for 5 min and centrifuged at 4000× g for 10 min. […] The logD value at a given pH is equal to the logarithm of the octanol/buffer partition coefficients (D). […] LogD values are given as mean ± standard deviation of triplicate determinations. Using the same protocol as above, the logD values at pH 6.4, 7.4 and 7.8 for lazabemide were also determined.

[12] = Tissue stability, rat liver homogenate; type: in vitro ADME; conditions: 37 °C
Protocol: as §3, §4

brain MAO-B = conditions: cited from earlier work

Protocol for physchem: as §7

N[C@@H](Cc1ccc(O)c(O)c1)C(=O)O [L-Dopa]
time to peak plasma levels [1]: 30 to 60 min | concentration reached in the brain [2]: too low to be reliably detected | logPe [3]: smaller than −7.99 | plasma half-life of L-dopa [4]: 51 to 97 min | viability at 24 h, 1 µM (MTT cell viability assay): 102 ± 4.19% | viability at 24 h, 10 µM (MTT cell viability assay): 105 ± 5.24% | viability at 24 h, 100 µM (MTT cell viability assay): 79% | percentage of viable cells remaining (HeLa cells): 79.3 ± 13.0% | half-life [5]: approximately 90 min | fraction of the administered oral dose reaching the brain unchanged ([5]; oral, estimated): less than 1% | Papp at 5 h, 200 µM (in vitro; pH 3.7): 0.0102 ×10⁻⁶ cm/s | Papp at 5 h, 200 µM (in vitro; pH 4.7): 0.00891 ×10⁻⁶ cm/s | Papp at 5 h, 200 µM (in vitro; pH 5.7): 0.00603 ×10⁻⁶ cm/s | Papp at 5 h, 200 µM (in vitro; pH 6.4): 0.0024 ×10⁻⁶ cm/s | Papp at 5 h, 200 µM (in vitro; pH 7.4): 0.00676 ×10⁻⁶ cm/s | Papp at 5 h, 200 µM (in vitro; pH 7.8): 0.00275 ×10⁻⁶ cm/s

N[C@@H](Cc1ccc(O)c(O)c1)C(=O)NCCNC(=O)c1ccc(Cl)cn1 [L-dopa–lazabemide prodrug]
chemical stability in aqueous buffer ([6]; pH 3.7–7.4, up to 11 h): stable | prodrug concentration remaining ([6]; pH 7.8, 11 h, relative to first injection): 90.3% | striatal DOPAC levels ([2]; 63.5 µmol/kg intraperitoneal, 60 min, vs saline): significant reduction | striatal serotonin and 5-HIAA levels ([2]; 63.5 µmol/kg oral gavage or ip, 60 min): not altered | striatal dopamine levels ([2]; 63.5 µmol/kg oral gavage or ip, 60 min, vs saline): does not enhance | concentration reached in the brain [2]: too low to be reliably detected | prodrug concentration remaining ([7]; 17 h): 70.5 µM | stability in plasma ([7]; up to 8 h): relatively stable | pKa ([8]; amine group, titration with KOH in water): 7.25 ± 0.16 | fraction existing as neutral uncharged species ([8]; pH 5.5): 1–2% | fraction existing as neutral uncharged species ([8]; pH 7.4): approximately 59% | prodrug concentration remaining ([9]; 17 h): 64 to 68 µM | stability in plasma ([9]; up to 8 h): stable | viability at 24 h, 1 µM (MTT cell viability assay): 112 ± 12% | viability at 24 h, 10 µM (MTT cell viability assay): 52.1 ± 14% | viability at 24 h, 100 µM (MTT cell viability assay): 35% | percentage of viable cells remaining (HeLa cells): 34.9 ± 7.94% | solubility at 24 h ([10]; aqueous buffer, potassium phosphate buffer pH 7.4, 6000 μg/mL theoretical, 24 h, read-out: Solubility, Amount Measured): 6140 ± 730 µg/mL (≈ 16.2 mM) | solubility at 24 h ([10]; water, 6000 μg/mL theoretical, 24 h, read-out: Solubility, Amount Measured): 6280 ± 747 µg/mL (≈ 16.6 mM) | solubility at 24 h ([10]; water and potassium phosphate buffer, aqueous buffer, water and buffer pH 7.4, read-out: minimum solubility): ≥ 6000 µg/mL | Papp at 5 h, 200 µM (in vitro; pH 3.7): 0.00955 ×10⁻⁶ cm/s | Papp at 5 h, 200 µM (in vitro; pH 4.7): 0.0155 ×10⁻⁶ cm/s | Papp at 5 h, 200 µM (in vitro; pH 5.7): 0.0195 ×10⁻⁶ cm/s | Papp at 5 h, 200 µM (in vitro; pH 6.4): 0.0195 ×10⁻⁶ cm/s | Papp at 5 h, 200 µM (in vitro; pH 7.4): 0.0295 ×10⁻⁶ cm/s | Papp at 5 h, 200 µM (in vitro; pH 7.8): 0.0468 ×10⁻⁶ cm/s | logD ([11]; n-octanol/potassium phosphate buffer, pH 7.4, LogD, pH 7.4): 0.199 ± 0.002 | logD ([11]; n-octanol/potassium phosphate buffer, pH 7.8, LogD, pH 7.8): 0.319 ± 0.003 | logD ([11]; pH 6.4): < 0 | logD ([11]; pH 6.4, listed as Prodrug): –4.58 ± 0.002 | half-life at 200 µM ([12]; approximate, read-out: t½): ~60 min | prodrug remaining ([12]; 4 h incubation): 37%

NCCNC(=O)c1ccc(Cl)cn1 [Lazabemide]
concentration reached in the brain [2]: too low to be reliably detected | logD (physchem; pH 6.4, LogD): -1.18 | logD (physchem; pH 7.4, LogD): -0.68 | logD (physchem; pH 7.8, LogD): -0.63 | Papp at 5 h, 200 µM (in vitro; pH 3.7): 0.0427 ×10⁻⁶ cm/s | Papp at 5 h, 200 µM (in vitro; pH 4.7): 0.0871 ×10⁻⁶ cm/s | Papp at 5 h, 200 µM (in vitro; pH 5.7): 0.148 ×10⁻⁶ cm/s | Papp at 5 h, 200 µM (in vitro; pH 6.4): 0.355 ×10⁻⁶ cm/s | Papp at 5 h, 200 µM (in vitro; pH 7.4): 1.62 ×10⁻⁶ cm/s | Papp at 5 h, 200 µM (in vitro; pH 7.8): 2.14 ×10⁻⁶ cm/s | time for enzyme activity to return to baseline after drug discontinuation (brain MAO-B; MAO-B): ≤ 36 h | inhibition of brain MAO-B (brain MAO-B; at least 0.4 mg/kg every 12 h, patients with early Parkinson’s disease): > 90%
